According to patent publication US20210177806A1, “COMBINATION PHARMACEUTICAL, PROPHYLACTIC OR SUPPRESSIVE AGENT FOR DEVELOPMENT OF RESISTANCE TO PYRIMIDINE ANTIMETABOLITE, AND METHOD OF TREATING DISEASE” (FUJIFILM Corporation, priority 2018, published 2021):
“Also recorded” adds a separate entry of the source.

Legend:
[1] = test system: azacitidine-resistant leukemia cell lines; conditions: cited from earlier work
[2] = test system: SKM-1 leukemia cell line; assay: Cell proliferation assay for azacitidine after long-term culture (development of resistance); assay type: cell-based; conditions: for sensitivity to azacitidine (dose-response curve) / development of resistance: Aza group: SKM-1 treated 4 months with azacitidine only, 50 nmol/L to 1.6 mol/L
Method: SKM-1 (National Institute of Biomedical Innovation, Health and Nutrition) was used as leukemia cell line. Cells were cultured in RPMI 1640 medium (Life Technologies) containing 1% penicillin/streptomycin and 10% fetal bovine serum (FBS) in an environment of 37° C., 5% CO2 and saturated water vapor.
The respective cultures were subjected to long-term culture. The concentration of azacitidine was 50 nmol/L at the start and was doubled at 2-4 week intervals. When cultured for 2 weeks after the azacitidine concentration had reached […], the treated groups were subjected to an assay for cell proliferation for azacitidine.
In the cell proliferation assay, cells were first suspended in a medium so that the number of cells was 111,111 cells/mL, and 90 μL (10,000 cells) each of the resultant was seeded in a 96-well plate (Corning Incorporated) per well. Next, 10 μL of a PBS solution of azacitidine (0, 3, 10, 30, 100 or 300 μmon) was added to the plate, and the cells were cultured in an environment of 37° C., 5% CO2 and saturated water vapor for 72 hours.
The relative number of the cancer cells after the above incubation was measured in terms of emission intensity using Cell Titer Glo (Promega Corporation) reagent by a plate reader (Envision, PerkinElmer Inc.). With the number of cells at a concentration of azacitidine of 0 μmol/L as 100% and the emission intensity of the sample to which no cells were added as 0%, the relative value of emission intensity was calculated at each azacitidine concentration. The results of each group were plotted with the azacitidine concentration (mon) on the horizontal axis and the emission intensity (relative value) on the vertical axis.
Aza: SKM-1 cells treated for 4 months with gradual increase in the concentration of azacitidine (50 nmol/L to […]) Aza+A1: SKM-1 cells which were treated in the same manner as in the Aza group and to which Compound A was added at 1 μmon throughout the period of treatment. Aza+A10: SKM-1 cells which were treated in the same manner as in the Aza group and to which Compound A was added at 1 μmon throughout the period of treatment

[3] = test system: intracellular CTP (cytidine triphosphate) in leukemia cells (SKM-1); assay: Amount of intracellular CTP in leukemia cells after 4-month exposure; assay type: cell-based
Method: Intracellular CTP (cytidine triphosphate) competes with Aza-CTP (an active metabolite of Aza) and an increased amount of CTP may reduce sensitivity to Aza. […] Then, studies were conducted on the assumption that exposure to Compound A or a salt thereof or a hydrate thereof and Aza for a long time is effective for the recovery or retainment of sensitivity to Aza with the expectation that Compound A or a salt thereof or a hydrate thereof has an inhibitory effect on CTP increase.
The result is that a long-term (4 months) exposure of leukemia cells to a combination of Aza and Compound A.¾ hydrate caused a change in Aza sensitivity. […] Thus, treating an untreated MDS patient with a combination of Aza and Compound A or a salt thereof or a hydrate thereof is considered to be effective for maintaining their sensitivity to Aza.

[4] = test system: MDS patients; assay: Administration to MDS patients (Examples 2 to 5); assay type: in vivo; conditions: for effect on the development of resistance to pyrimidine antimetabolite: 28-day cycle
Method: (§1) Compound A is administered to MDS patients (over 18 years of age) at a dose per one time of 400 mg/m^2 twice a day for 14 days. Administration of azacitidine is started on the day when the administration of Compound A is started. Azacitidine is administered subcutaneously or intravenously at a dose of 75 mg/m^2 for 7 days. The treatment cycle consists of 28 days. After the administration for 7 days, the administration is discontinued for 21 days.
as §1, with “21” for “14”, “days.” for “days. Administration of azacitidine is started on the day when the administration of Compound A is started.”
as §1, with “time of 300 mg/m^2 twice” for “time of 400 mg/m^2 twice”, “21 days. […] The day of the start of administration of Compound A may be earlier than the day of the start of administration of azacitidine. Furthermore, Compound A may be administered twice a day for 21 days as in Example 3.” for “21 days.”
as §1, with “time of 200 mg/m^2 twice” for “time of 400 mg/m^2 twice”, “21 days. […] The day of the start of administration of Compound A may be earlier than the day of the start of administration of azacitidine. Furthermore, Compound A may be administered twice a day for 21 days as in Example 3.” for “21 days.”
For the MDS patients in Examples 2 to 5, the therapeutic effect is evaluated for the following items in comparison with the outcome of an azacitidine single agent+BSC (Best Supportive Care: Support therapy, transfusion, administration of antibiotics, analgesics, antipyretics, antiemetics, etc. as required) (International Phase III Test “Aza-001”). The period for which the development of resistance to pyrimidine antimetabolite is prevented or suppressed in the above patients is preferably 3 months or more, preferably 4 months or more, preferably 5 months or more, preferably 6 months or more, and preferably 1 year or more.

[5] = test system: MDS patients; conditions: AZA-001 test, cited from earlier work

In the case of NC(=O)c1nc[nH]c1O [Compound A, 5-Hydroxy-1H-imidazole-4-carboxamide], the “cell growth inhibitory activity / cross resistance” value [1] is given as “cell growth inhibitory activity without cross resistance”, the “effect on the development of resistance to Aza” value ([2]; 4-month exposure of naive SKM-1 to Aza and Compound A (1 mon or 10 μmon)) is given as “prophylactic or suppressive effect; also recorded: almost complete elimination of the development of resistance to Aza” and the “sensitivity to azacitidine (dose-response curve)” value ([2]; Aza+A1 group: treated as Aza group plus Compound A at 1 μmon throughout) is given as “almost the same as that of the control group”. The “sensitivity to azacitidine (dose-response curve)” value ([2]; Aza+A10 group: treated as Aza group plus Compound A at 10 mon throughout) was “almost the same as that of the control group”, the “amount of intracellular CTP” value ([3]; Aza and Compound A combined from the start of the treatment) was “kept at a level similar to that in untreated cells” and the “effect on the development of resistance to pyrimidine antimetabolite” value (“effect … to pyrimidine antimetabolite” below) ([4]; Example 2: Compound A 400 mg/m^2 twice a day for 14 days with azacitidine 75 mg/m^2 for 7 days) was “prophylactic or suppressive effect”. The “effect … to pyrimidine antimetabolite” value ([4]; Example 3: Compound A 400 mg/m^2 twice a day for 21 days with azacitidine 75 mg/m^2 for 7 days) was “prophylactic or suppressive effect”, the “side effects in patients” value ([4]; Example 4: Compound A 300 mg/m^2 twice a day for 14 days with azacitidine) was “side effects in patients can be reduced” and the “effect … to pyrimidine antimetabolite” value ([4]; Example 4: Compound A 300 mg/m^2 twice a day for 14 days with azacitidine 75 mg/m^2 for 7 days) was “prophylactic or suppressive effect”. For the same molecule, the “side effects in patients” value ([4]; Example 5: Compound A 200 mg/m^2 twice a day for 14 days with azacitidine) was “side effects in patients can be reduced” and the “effect … to pyrimidine antimetabolite” value ([4]; Example 5: Compound A 200 mg/m^2 twice a day for 14 days with azacitidine 75 mg/m^2 for 7 days) was “prophylactic or suppressive effect”.

With Nc1ncn([C@@H]2O[C@H](CO)[C@@H](O)[C@H]2O)c(=O)n1 [azacitidine, 4-amino-1-β-D-ribofuranosyl-1,3,5-triazin-2(1H)-one] the “sensitivity to azacitidine (dose-response curve) / development of resistance” value [2] was “the dose-response curve shifted to the right”, the “sensitivity to azacitidine (dose-response curve) / development of resistance” value ([2]; listed as Aza) was “resulting in the development of resistance” and the “emission intensity (relative value) / number of viable cells” value ([2]; SKM-1, all groups, azacitidine 72 hours, Cell Titer Glo) was “decreased azacitidine concentration-dependently”. The “amount of intracellular CTP” value ([3]; 4-month exposure to only Aza) was “an increase in the amount of intracellular CTP”, the 2-year survival rate [5] was 50.8% and the “Hematologic response rate according to IWG criteria (2000 edition)” value [5] was 6.7%. For the same molecule, the “Hematological improvement according to IWG criteria (2000 edition)” value [5] was 49.2%, the “Median time of AML transformation” value [5] was 20.7 months and the “Median time of AML transformation or death” value [5] was 13.0 months. The “Survival (median)” value [5] was 24.5 months, the “patients who achieved platelet transfusion-independence from dependence” value ([5]; no platelet transfusions for consecutive 56 days or more) was 42.1% and the “patients who achieved red blood cell transfusion-independence from dependence” value ([5]; no red blood cell transfusions for consecutive 56 days or more) was 45.0%.
